From patent US20100216875A1, “METHODS OF TREATING ALZHEIMER'S DISEASE” (priority 2006, published 2010)

Tests used:
[1] = tested on: brain and synaptosomal Aβ; experiment: guinea pig brain and synaptosome Aβ by ELISA after icv infusion; assay type: in vivo; conditions: icv 0.15 mg/kg/day
From the text: Guinea pig (gp) is a natural, non-transgenic model of human APP processing gpAPP is 98% homologous to human APP, contains the human wild-type β-secretase site, and gpAβ is identical to human Aβ. Brain synaptosome preparations are enriched with neuronal synapses which are the sites at which regulated secretion occurs and are an in vivo measure of regulated secretory secretion CTFβ is an APP fragment that results from p-secretase cleavage of APP and reflects in vivo β-secretase activity. […] E64d was icy administered into gp brains (0.15 mg/kg/day) for 7 or 30 days. […] In FIG. 5b, total synaptosomal Aβ is shown.
CA074Me (0.15 mg/kg/day) was icy infused into gp brains with mini pumps. […] An equal reduction of Aβ40 and Aβ42 is consistent with the inhibitor affecting p-secretase activity
At the end of the treatment, the brains were isolated and extracted with guanidine hydrochloride and Aβ40 and Aβ42 levels were determined using ELISA.
Cathepsin B inhibitors were administered directly into the brain by icy infusion with minipumps in time course studies at different doses. Guinea pigs were infused with compounds using Alzet pumps (2.5 μl/hr, with compounds at 1 mg/ml in saline) for 7 and 30 days, and other times. This initial dose of compound was selected because E64d and CA074Me are effective at this dose. Each treatment group consisted of eight to ten guinea pigs, including the vehicle control group.
At the end of each experiment, animals were sacrificed and half the brain was taken for ELISA measurement of Aβ40 and Aβ42 levels. The other half was isolated for synaptosome preparations for ELISA measurement of Aβ40 and Aβ42 content in nerve terminals. Synaptosomes were prepared by homogenization in isotonic sucrose (320 mM), pH 7.4, 1 mM EDTA, 0.25 mM dithiothreitol, and 30 U/MI RNAse inhibitor. The homogenate was centrifuged at 1000×g for 10 minutes. The supernatant was loaded on a Sucrose-Percoll discontinuous gradient and centrifuged at 32,000×g for 5 minutes (80) Enriched synaptosomes were washed in PBS, and centrifuged at 12,000×g for 4 minutes. The supernatant was removed, and the synaptosome containing pellet was resuspended in 50% OptiPrep (Accurate Chemica. Westbury, N.Y.), loaded on an OptiPrep discontinuous flotation gradient (9, 12.5, 25, and 35%) and centrifuged at 10,000×g for 20 minutes. The synaptosomes were obtained at the […]
For quantitative analysis of Aβ peptides, an enzyme-linked immunosorbent assay (ELISA) was used to measure the levels of total Aβ, Aβtotal, Aβ40 and Aβ42 in the brains and synaptosomes of guinea pigs (Biosource International, Camarillo, Calif.) Aβtotal, Aβ40, Aβ42 was extracted from guinea pig brains or from synaptosomes by guanidine hydrochloride and quantified as described by the manufacturer. This assay extracted the total Aβ peptide from the brain (both soluble and aggregated). Tissue samples were homogenized in 5M guanidine buffer (5M guanidine HCl in 50 mM Tris-Cl, pH 8.3; Sigma-Aldrich, St. Louis, Mo.) at 1:10 w/v dilution. Homogenates were agitated at room temperature for 3-4 hours, then stored at −20° C. The day before running the ELISA, the tissue samples were diluted further 1:10 to provide a final guanidine concentration of 0.5M. These diluted homogenates were spun down at 14,000 rpm for 20 minutes at 4° C. and supernatants used for Aβ determination by ELISA (84-86). Brain and synaptosome extracts were assayed as diluted in 0.5M guanidine. In addition, Aβ40 and Aβ42 were assayed using ELISA using 6E10 as the capture antibody and Rb209 and Rb321 as reporter antibodies, respectively, for Aβ40 and Aβ42 (96).

[2] = tested on: transgenic APPIn mice (London mutant human APP); experiment: brain Aβ and amyloid plaque load in transgenic APPIn mice; assay type: in vivo, mouse; conditions: icv 0.015 mg/kg/day, 28 days; for reduction of amyloid plaque load: cortex
Procedure: Transgenic mice expressing human APP containing the London mutation (APPIn) mimic AD function and pathology in that they are cognitively deficient, have brain amyloid plaque and elevated Aβ (8). […] CA074Me or E64d were administered by icy infusion in brains (0.015 mg/kg/day) for 28 days (8 animals per treatment group).
APPIn mice express the clinical mutant human APP (APP[V717I]) which has a mutation at the γ-secretase site that results in the overproduction of Aβ and the behavioral and neuropathology that develop an AD phenotype (8). These mice show early stage deficits in cognition and memory at 3-9 months age. At the later age of 8-12 months, amyloid plaques have developed in brains of these mice, with increased levels of Aβ40 and Aβ42 peptides in the brain. […] Thus, this AD mouse model allows testing of select reversible compounds to improve cognition and to reduce brain levels of Aβ peptides and amyloid plaques.
Direct icy infusion into the brain was the first route of administration to be tested to establish the effectiveness of reversible inhibitors in the brain to provide cognitive improvement, and reduction in brain Aβ peptides and amyloid plaques. Icy infusion was performed as described above for the irreversible inhibitors with use of the Alzet minipump. The initial dose utilized was the same dosage used for E64d and CA074Me in the APPIn mice or APPswe/In mice Administration of these compounds began at approximately 1-2 months of age and infusion was conducted for periods of 1, 2, 4, and 8 months (or other time periods). Administration of the select reversible compounds by direct icy infusion into mouse brains was conducted initially at 0.025 μl/hr of 1 mg/ml, other doses may be examined based on results with the first dose. Each time point was conducted with about 8-10 animals and 8-10 normal control animals (age-matched) (or greater number of mice per treatment group, if necessary, for appropriate statistical evaluation). At the end of each of these infusion periods, cognitive testing and assessment of Aβ peptide levels with plaque pathology was evaluated. At each of these time points, mice were tested for cognition, and then sacrificed for evaluation of Aβ and neuropathology in the brain
After behavioral testing was completed, the mice were sacrificed for analyses of Aβ40 and Aβ42 peptide levels, and neuropathology. One half brain (one hemisphere) was utilized to prepare brain extracts for measurement of Aβ40 and Aβ42 levels by ELISA assays, and the other half brain was used for neuropathological evaluation. Procedures for preparation of brain extracts and ELISA assays for Aβ peptides are those used for analyses of guinea pig brains
Aβ-related neuropathology was assessed in cortex and hippocampus of brains. The relative extent of Aβ immunoreactivity in neurons and glial cells was assessed. Immunostaining for Aβ was conducted as described previously (58) Aβ-related neuropathology was assessed in cortex and hippocampus of brains, as well as other regions of the brain as controls. Brain tissue was fixed in 4% paraformaldehyde overnight, and then processed to paraffin. Serial sections were obtained, deparaffinized and washed in TBS buffer. Each section was blocked with appropriate normal serum (mouse or rabbit), and subjected to primary anti-Aβ antibody for detection of amyloid deposits. Sections were then stained with DAB ([…]) with the Vector ABC Elite kit (Vector Laboratories). Amyloid areas were imaged with microscopic computer-assisted analysis system using the NIH Image Analysis Software.

[3] = target: aspartyl protease, BACE1 (Homo sapiens, UniProt P56817); experiment: effect on BACE1; assay type: biochemical
aspartyl protease, BACE1, sequence (P56817 46-501): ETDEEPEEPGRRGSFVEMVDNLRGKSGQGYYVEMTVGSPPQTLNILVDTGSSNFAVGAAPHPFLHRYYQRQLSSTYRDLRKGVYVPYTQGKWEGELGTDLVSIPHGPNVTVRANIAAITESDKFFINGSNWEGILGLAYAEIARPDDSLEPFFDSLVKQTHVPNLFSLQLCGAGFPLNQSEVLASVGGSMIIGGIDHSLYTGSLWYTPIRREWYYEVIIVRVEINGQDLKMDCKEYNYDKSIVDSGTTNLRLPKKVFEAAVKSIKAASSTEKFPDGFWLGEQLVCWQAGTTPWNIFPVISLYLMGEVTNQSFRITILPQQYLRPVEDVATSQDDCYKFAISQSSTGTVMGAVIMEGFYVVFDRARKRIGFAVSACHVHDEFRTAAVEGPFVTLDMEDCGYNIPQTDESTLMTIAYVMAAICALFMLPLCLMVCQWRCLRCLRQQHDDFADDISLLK

Row | SMILES | reduction of total Aβ in brain extracts ([1]; 7 days) | reduction of total synaptosomal Aβ ([1]; 7 days) | reduction of total Aβ in brain extracts ([1]; 30 days) | reduction of total synaptosomal Aβ ([1]; 30 days) | reduction of brain Aβ ([1]; duration not stated) | decrease in brain Aβ40 [2] | decrease in brain Aβ42 [2] | reduction of amyloid plaque load [2] | effect on BACE1 [3] | reduction of Aβ40 in brain extracts ([1]; 7 days) | reduction of Aβ42 in brain extracts ([1]; 7 days) | reduction of Aβ40 in brain extracts ([1]; 30 days) | reduction of Aβ42 in brain extracts ([1]; 30 days) | reduction of Aβ40 in the brain ([1]; duration not stated) | reduction of Aβ42 in the brain ([1]; duration not stated)
1 | CCOC(=O)[C@H]1O[C@@H]1C(=O)N[C@@H](CC(C)C)C(=O)NCCC(C)C [E64d] | 30% | 27% | 50% | 50% | 50% | 50% | 50% | significantly reduce amyloid load | do not affect |  |  |  |  |  | 
2 | CCCNC(=O)[C@H]1O[C@@H]1C(=O)N[C@H](C(=O)N1CCC[C@H]1C(=O)OC)[C@@H](C)CC [CA074Me] | 50% | 45% | 60% | 50% |  | 50% | 50% | significantly reduce amyloid load | do not affect | 50% | 50% | 50% | 50% | 50-60% | 50-60%
